Measured values as given in patent US4980377A, “1-(aminophenyl)-2-aminopropanone derivatives” (Laboratoire L. Lafon, priority 1984, dated 1990).
Entries after “also recorded” stand apart in the source; their conditions may differ. Where a name gives a salt, the structure may show the parent alone.

Assays:
[1] = test system: rats; experiment: Overall behavior and reactivities in rats; assay type: in vivo, rat; details: for Observed symptoms: i.p.
Procedure: (§1) In the neuropsychopharmacological study which follows, a solution of CRL 41 153 in distilled water (pH 1.5) was administered intraperitoneally in a volume of 20 ml/kg to male mice and 5 ml/kg to male rats.
(§2) Groups of three animals are observed before and then 0.25 hour, 0.50 hour, 1 hour, 2 hours, 3 hours and 24 hours after the administration of CRL 41 153.

[2] = test system: dogs; experiment: Cardiovascular study in anesthetized dogs; assay type: in vivo, dog
In short: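 Measurements: blood pressure, heart rate, femoral and vertebral arterial flow, rectal temperature, skin colour, and for CRL 41 194 bile colour via bile-duct catheter. Doses rose stepwise 0.1–10 mg/kg intraduodenally in solution under nembutal anaesthesia; two dogs got CRL 41 194, four CRL 41 221.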

[3] = test system: gravid White New Zealand female rabbits; experiment: Teratogenicity in gravid White New Zealand rabbits; assay type: in vivo, rabbit; details: day 5 to day 18 of gestation; for Affected foetuses, %: normal limit 1.5%
In short: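 Fetuses harvested by cesarean on gestation day 29 were scored for number and for any malformation (limb blockade, anury, tail or skull defects, exencephaly).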

[4] = test system: rats; experiment: Investigation of stereotype movements; assay type: in vivo, rat; details: i.p., compared with amphetamine 2 mg/kg, hydrochloride
Procedure: Immediately after the intraperitoneal administration of CRL 41 194 or amphetamine, groups of 6 rats are placed in Plexiglass boxes (20×10×10 cm). The stereotype movements are graded from 0 to 3 every 10 minutes until they wear off.
Groups of 6 rats receive an intraperitoneal injection of CRL 41 213, distilled water or amphetamine immediately before being placed in small cages, where their stereotype behavior is graded every 10 minutes until the effect wears off.

[5] = test system: male mice; experiment: Acute toxicity by intraperitoneal administration; assay type: in vivo, mouse; details: i.p.
Procedure: as §1

[6] = Acute toxicity by intraperitoneal administration; assay type: in vivo, mouse; details: mouse, in vivo, ip; male mice
Procedure: as §1

[7] = test system: humans; experiment: Clinical study: vasodilator; assay type: in vivo, human
Excerpt: In the treatment of diseases associated with the blood circulation through the vessels.

[8] = test system: man; experiment: Clinical study: treatment of depressions; assay type: in vivo, human
[9] = test system: mice; experiment: Overall behavior and reactivities in mice; assay type: in vivo, mouse; details: i.p.
Procedure: as §1, §2

[10] = test system: cellular and humoral immunity; experiment: Test for cells forming lysis areas; details: in vivo
[11] = test system: immunity; experiment: Immunological study (overall); details: in vivo; hydrochloride
[12] = test system: cellular and humoral immunity; experiment: Delayed hypersensitivity to the red blood corpuscles of sheep; assay type: in vivo
[13] = test system: mice; experiment: Interaction with apomorphine in mice; assay type: in vivo, mouse; details: gastric, apomorphine 16 mg/kg s.c.
Procedure: Groups of 6 mice receive CRL 41 153 0.5 hour before the subcutaneous injection of 1 or 16 mg/kg of apomorphine.

[14] = test system: CNS; experiment: Neuropsychopharmacological profile as a whole; assay type: in vivo, mice and rats; details: conclusion of the tests
Procedure: as §1

[15] = test system: mice; experiment: Particular toxicity in grouped mice; details: mice
Procedure: (§3) The number of dead animals is noted after 1 hour, 2 hours, 3 hours, 4 hours and 24 hours.

[16] = Particular toxicity in grouped mice; details: mouse, ip
Procedure: as §3

[17] = pH of solutions in distilled water; assay type: physicochemical; details: administered solution in distilled water, concentration not given
Procedure: The neuropsychopharmacological study was undertaken according to the procedures described above for CRL 41 153, CRL 41 213 being adminstered intraperitoneally, in solution in distilled water, in a volume of 20 ml/kg to male mice and a volume of 5 ml/kg to male rats, and the pH of the injected solution varying with the concentration of CRL 41 213 according to the data given in Table II below.

[18] = test system: mice; experiment: Interaction with barbital; assay type: in vivo, mouse; details: gastric
Procedure: Half an hour after the administration of CRL 41 153, groups of 10 mice receive an intraperitoneal injection of barbital (220 mg/kg).

[19] = test system: mice; experiment: Spontaneous motility; assay type: in vivo, mouse; details: gastric
Procedure: 0.5 hour after they have received CRL 41 153, the mice (6 per dose, 12 control animals) are placed in an actimeter, where their motility is recorded for 30 minutes.

[20] = anesthetized dogs, intraduodenal
[21] = dogs, after product, isoprenaline 10 μg/kg
[22] = dogs, after product, norepinephrine 2 μg/kg

**Q.** For `CC(C)NC(C)C(=O)c1cc(Cl)c(N)c(Cl)c1` (centres unmarked) [CRL 41 194, 1-(4-amino-3,5-dichlorophenyl)-2-isopropylaminopropanone hydrochloride], which “Stereotype movements (summary)” value ([1]; dose not stated) is on record?
**A.** stereotype movements (of moderate intensity)

**Q.** What about the Observed symptoms ([1]; 0.125 mg/kg) of the same compound?
**A.** mydriasis for 2 hours (at a maximum 0.5 hour after administration)

**Q.** What about the Observed symptoms ([1]; 0.5 mg/kg) of the same compound?
**A.** dyspnea for 0.5 hour

**Q.** What about the Observed symptoms ([1]; 2 mg/kg, hydrochloride) of the same compound?
**A.** mydriasis at a maximum 0.5 hour after administration; also recorded: dyspnea for 2 hours

**Q.** What about the Observed symptoms ([1]; 8 mg/kg, hydrochloride) of the same compound?
**A.** piloerection for 1 hour; also recorded: mydriasis for 2 hours (at a maximum 0.5 hour after administration); also recorded: dyspnea for 2 hours

**Q.** What about the “Vasodilator (conclusion)” value [2] of the same compound?
**A.** good vasodilator

**Q.** What about the “Effect on hypertension induced by norepinephrine” value ([2]; anesthetized dogs) of the same compound?
**A.** slightly reduced

**Q.** And the “Effects of isoprenaline on the blood pressure” value ([2]; anesthetized dogs)?
**A.** reduced as regards the blood pressure

**Q.** And the Rectal temperature ([2]; anesthetized dogs)?
**A.** the rectal temperature and skin temperature rose

**Q.** And the Skin temperature ([2]; anesthetized dogs)?
**A.** the rectal temperature and skin temperature rose

**Q.** What about the “Effects of isoprenaline on the heart rate” value ([2]; anesthetized dogs, after accumulated dose of 19.1 mg/kg intraduodenal) of the same compound?
**A.** not modified as regards the heart rate

**Q.** And the Blood pressure [2, 20]?
**A.** A drop in the diastolic blood pressure is observed at 5 mg/kg

**Q.** What about the Differential blood pressure [2, 20] of the same compound?
**A.** an increase in the differential blood pressure as from the smallest doses

**Q.** What about the Femoral flow [2, 20] of the same compound?
**A.** At 0.5 mg/kg, the femoral flow increases

**Q.** And the Heart rate [2, 20]?
**A.** At 0.5 mg/kg, the femoral flow increases at the same time as the heart rate

**Q.** And the Respiration [2, 20]?
**A.** Both dogs received respiratory stimulation

**Q.** And the Vertebral flow [2, 20]?
**A.** increases the vertebral flow as from a dose of 0.1 mg/kg

**Q.** And the “Diastolic blood pressure after isoprenaline” value [2, 21]?
**A.** 64 mm Hg

**Q.** What about the “Diastolic blood pressure before isoprenaline” value [2, 21] of the same compound?
**A.** 126 mm Hg

**Q.** What about the “Heart rate after isoprenaline” value [2, 21] of the same compound?
**A.** 262 beats/minute

**Q.** And the “Systolic blood pressure after norepinephrine” value [2, 22]?
**A.** 266 mm Hg

**Q.** And the “Systolic blood pressure before norepinephrine” value [2, 22]?
**A.** 208 mm Hg

**Q.** And the “Affected foetuses, number” value ([3]; 5 mg/kg daily)?
**A.** 1

**Q.** What about the “Total foetuses (live)” value ([3]; 5 mg/kg daily) of the same compound?
**A.** 95

**Q.** What about the “Affected foetuses, %” value ([3]; 5 mg/kg daily) of the same compound?
**A.** 1.10%

**Q.** And the “Affected foetuses, number” value ([3]; 10 mg/kg daily)?
**A.** 0

**Q.** And the “Total foetuses (live)” value ([3]; 10 mg/kg daily)?
**A.** 91

**Q.** What about the “Affected foetuses, %” value ([3]; 10 mg/kg daily) of the same compound?
**A.** 0%

**Q.** What about the Stereotype movements [4] of the same compound?
**A.** At the strongest dose used (16 mg/kg), CRL 41 194 causes the appearance of stereotype movements; also recorded: The intensity of the effect obtained with 16 mg/kg is slightly lower than that obtained with 2 mg/kg of amphetamine

**Q.** What about the “LD0 (maximum non-lethal dose)” value [5] of the same compound?
**A.** greater than 32 mg/kg

**Q.** What about the LD50 [6] of the same compound?
**A.** 86 mg/kg

**Q.** And the “Vasodilator in human clinical use” value [7]?
**A.** very active as a vasodilator

**Q.** And the “Result in the treatment of depressions” value [8]?
**A.** excellent results on man in the treatment of depressions at a dose of 3×5 mg per day

**Q.** What about the Observed symptoms ([9]; 0.25 mg/kg) of the same compound?
**A.** weak excitation 24 hours after administration

**Q.** And the Observed symptoms ([9]; 1 mg/kg)?
**A.** weak excitation 24 hours after administration

**Q.** What about the Observed symptoms ([9]; 4 mg/kg) of the same compound?
**A.** weak excitation and an increase in the reactivity to touch about 24 hours after administration

**Q.** What about the Observed symptoms ([9]; 16 mg/kg, hydrochloride) of the same compound?
**A.** weak excitation 24 hours after administration; also recorded: an increase in the reactivity to touch for 24 hours; also recorded: dyspnea for 3 hours; also recorded: mydriasis for 2 hours (at a maximum 1 hour after administration); also recorded: dilation of the caudal veins for 2 hours

**Q.** What about the “Activity in the test for cells forming lysis areas” value [10] of the same compound?
**A.** active on the cellular and humoral immunity

**Q.** What about the “Immunological effect (overall)” value [11] of the same compound?
**A.** immunostimulant or immunomodulating effects; also recorded: beneficial immunological properties; also recorded: behaves as an immunomodulating agent

**Q.** And the “Activity on the delayed hypersensitivity reaction” value [12]?
**A.** active on the cellular and humoral immunity

**Q.** What about the “Effect on hypothermia induced by apomorphine” value [13] of the same compound?
**A.** as from a dose of 2 mg/kg, administered gastrically, CRL 41 194 opposes the hypothermia

**Q.** What about the “Effect on righting behavior and stereotypies induced by apomorphine” value [13] of the same compound?
**A.** without modifying the righting behavior and the stereotypies

**Q.** And the “Antidepressant effects (overall)” value [14]?
**A.** is an antidepressant

**Q.** And the “Particular toxicity to grouped mice” value [15]?
**A.** more toxic to grouped mice than to isolated mice

**Q.** What about the LD50 ([16]; grouped mice) of the same compound?
**A.** 27 mg/kg

**Q.** And the selectivity ratio ([16]; in vivo)?
**A.** 3.19

**Q.** And the LD50 ([16]; isolated mice)?
**A.** 86 mg/kg

**Q.** What about the pH [17] of the same compound?
**A.** 4.5

**Q.** And the “Duration of the sleep induced by barbital” value [18]?
**A.** At the strongest dose administered gastrically (32 mg/kg), CRL 41 194 reduces the duration of the sleep induced by barbital in mice

**Q.** And the Spontaneous motor activity [19]?
**A.** At the strongest dose administered gastrically (32 mg/kg), CRL 41 194 slightly reduces the spontaneous motor activity of mice
